Results taken from patent US11504364B2, “Inhibitors of fibroblast activation protein” (Praxis Biotech LLC, priority 2018, dated 2022).
Read-outs that look alike come from different tables or passages of the source.

Key:
[1] = system: human AML cell line MV4-11; experiment: Cytotoxicity assay in human leukemia cell lines (Cell-Titer Glo)
[2] = target: T1, recombinant human DPP9 (rhDPP9) (Homo sapiens (Human), UniProt Q86TI2); experiment: DPP9 enzymatic activity assay; assay type: biochemical; details: Table 3A
T1 sequence (Q86TI2 whole entry): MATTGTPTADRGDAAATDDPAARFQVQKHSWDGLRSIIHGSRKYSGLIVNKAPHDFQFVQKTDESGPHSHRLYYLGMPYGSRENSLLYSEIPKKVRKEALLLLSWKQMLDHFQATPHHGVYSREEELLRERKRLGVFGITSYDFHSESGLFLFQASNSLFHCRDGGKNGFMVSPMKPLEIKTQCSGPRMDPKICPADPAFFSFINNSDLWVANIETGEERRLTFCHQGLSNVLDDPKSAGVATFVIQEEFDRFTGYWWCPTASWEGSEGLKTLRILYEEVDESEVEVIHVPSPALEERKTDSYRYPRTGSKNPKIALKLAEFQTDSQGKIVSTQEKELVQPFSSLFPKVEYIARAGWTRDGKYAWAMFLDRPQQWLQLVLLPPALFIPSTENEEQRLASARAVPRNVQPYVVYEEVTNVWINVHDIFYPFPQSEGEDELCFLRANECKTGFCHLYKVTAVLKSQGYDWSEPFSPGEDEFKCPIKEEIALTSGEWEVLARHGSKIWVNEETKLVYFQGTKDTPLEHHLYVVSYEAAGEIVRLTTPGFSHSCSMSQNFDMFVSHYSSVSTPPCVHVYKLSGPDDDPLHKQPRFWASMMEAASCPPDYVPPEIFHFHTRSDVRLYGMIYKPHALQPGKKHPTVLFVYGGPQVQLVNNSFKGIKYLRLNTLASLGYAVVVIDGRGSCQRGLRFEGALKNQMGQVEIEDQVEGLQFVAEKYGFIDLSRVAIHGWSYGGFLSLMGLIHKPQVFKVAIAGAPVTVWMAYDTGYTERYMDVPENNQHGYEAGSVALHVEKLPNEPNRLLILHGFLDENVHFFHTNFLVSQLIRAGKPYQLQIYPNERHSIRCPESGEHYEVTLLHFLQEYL

[3] = target: T1, recombinant human DPP9 (rhDPP9); experiment: Inhibition of DPP9 activity, 10 ng rhDPP9, H-Gly-Pro-AMC; assay type: biochemical; details: Table 3B
[4] = target: circulating FAPα from hamster plasma (Mesocricetus auratus, UniProt A0ABM2XF29); experiment: Ex vivo inhibition of circulating FAPα activity in hamster plasma (PRXS-AMC); assay type: biochemical, Golden Syrian hamster; details: PRXS-AMC substrate
Experimental: Male Golden Syrian hamsters were provided by National Laboratory Animal Center (NLAC) in Taiwan. The animals were maintained in a hygienic environment under controlled temperature (20-24° C.) and humidity (50%-80%) with 12 hours light/dark cycles. Free access to standard lab diet [MFG (Oriental Yeast Co., Ltd. Japan)] and autoclaved tap water were granted. All aspects of this work including housing, experimentation and disposal of animals were performed in general accordance with the “Guide for the Care and Use of Laboratory Animals: Eighth Edition” (National Academies Press, Washington, D.C., 2011). In addition, the animal care and use protocol was reviewed and approved by the IACUC at Pharmacology Discovery Services Taiwan, Ltd. Immediately after the sacrifice of hamsters, blood samples were collected via terminal cardiac puncture in tubes coated with EDTA-K2, mixed gently, then kept on ice and centrifuged at 2,500×g for 15 minutes at 4° C. After plasma separation, samples were stored at −80° C. in aliquots of […]. To assay exemplary compounds in hamster plasma, a similar protocol as described for human plasma was performed diluting thawed plasma 1:2 in assay buffer. […] AMC release was detected measuring fluorescence at an excitation/emission wavelength of 380/460 nm using a Multifunction Microplate Reader. […]

[5] = target: recombinant human DPPIV (rhDPPIV) (Homo sapiens (Human), UniProt P27487); experiment: DPPIV enzymatic activity assay; assay type: biochemical; details: Table 3B
Chain of recombinant human DPPIV (rhDPPIV) (P27487 whole entry): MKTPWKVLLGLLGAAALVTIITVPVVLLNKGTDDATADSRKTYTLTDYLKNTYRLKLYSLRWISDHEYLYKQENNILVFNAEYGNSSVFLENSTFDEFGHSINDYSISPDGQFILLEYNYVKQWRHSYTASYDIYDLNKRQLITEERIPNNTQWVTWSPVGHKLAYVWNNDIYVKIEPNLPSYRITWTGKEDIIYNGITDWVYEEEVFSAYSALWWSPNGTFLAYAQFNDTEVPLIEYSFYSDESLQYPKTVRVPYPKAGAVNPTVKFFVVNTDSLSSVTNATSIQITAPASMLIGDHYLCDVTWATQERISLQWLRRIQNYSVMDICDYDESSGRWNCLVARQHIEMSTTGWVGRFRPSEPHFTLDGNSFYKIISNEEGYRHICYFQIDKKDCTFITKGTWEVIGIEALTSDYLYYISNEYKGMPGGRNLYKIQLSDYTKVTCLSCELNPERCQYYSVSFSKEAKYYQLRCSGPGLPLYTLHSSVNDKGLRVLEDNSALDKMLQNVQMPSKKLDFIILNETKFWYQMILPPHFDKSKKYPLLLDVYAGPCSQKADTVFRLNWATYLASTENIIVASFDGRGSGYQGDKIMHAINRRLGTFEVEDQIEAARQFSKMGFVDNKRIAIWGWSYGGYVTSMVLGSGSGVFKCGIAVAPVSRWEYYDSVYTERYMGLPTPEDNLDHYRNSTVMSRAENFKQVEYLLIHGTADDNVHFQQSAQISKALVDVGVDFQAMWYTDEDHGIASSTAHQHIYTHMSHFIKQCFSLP

[6] = target: recombinant human FAPα (rhFAPα) (Homo sapiens (Human), UniProt Q12884); experiment: FAPα enzymatic exopeptidase (dipeptidase) activity assay, Z-Gly-Pro-AMC; assay type: biochemical; details: for inhibition at 1 µM / rhFAPα (% exo inh @ 1 μM): 1 μM test compound, exopeptidase; for inhibition at 1 µM: read-out: rhFAPα (% exo inh @ 1 μM)
Chain of recombinant human FAPα (rhFAPα) (Q12884 whole entry): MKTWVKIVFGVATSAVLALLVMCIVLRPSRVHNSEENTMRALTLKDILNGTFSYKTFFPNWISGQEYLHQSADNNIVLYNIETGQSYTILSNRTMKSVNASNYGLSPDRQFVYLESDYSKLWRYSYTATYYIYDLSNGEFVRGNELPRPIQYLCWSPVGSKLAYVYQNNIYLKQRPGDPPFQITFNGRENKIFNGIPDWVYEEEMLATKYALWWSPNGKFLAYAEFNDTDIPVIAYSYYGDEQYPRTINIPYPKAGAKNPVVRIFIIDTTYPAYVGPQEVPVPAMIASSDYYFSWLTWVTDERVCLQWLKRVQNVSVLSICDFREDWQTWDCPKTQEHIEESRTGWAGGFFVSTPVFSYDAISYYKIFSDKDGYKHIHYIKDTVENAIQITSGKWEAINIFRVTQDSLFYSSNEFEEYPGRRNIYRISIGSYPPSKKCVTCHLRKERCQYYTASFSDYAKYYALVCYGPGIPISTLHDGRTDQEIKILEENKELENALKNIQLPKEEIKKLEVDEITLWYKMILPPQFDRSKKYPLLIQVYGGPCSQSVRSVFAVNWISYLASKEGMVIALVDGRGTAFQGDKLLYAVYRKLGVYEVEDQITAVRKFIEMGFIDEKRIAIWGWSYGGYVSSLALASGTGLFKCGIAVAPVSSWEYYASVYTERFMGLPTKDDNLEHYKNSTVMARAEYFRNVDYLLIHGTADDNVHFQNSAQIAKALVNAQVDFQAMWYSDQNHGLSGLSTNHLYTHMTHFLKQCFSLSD

[7] = target: recombinant human PREP (rhPREP) (Homo sapiens (Human), UniProt P48147); experiment: PREP enzymatic activity assay; assay type: biochemical; details: Table 3B
Chain of recombinant human PREP (rhPREP) (P48147 whole entry): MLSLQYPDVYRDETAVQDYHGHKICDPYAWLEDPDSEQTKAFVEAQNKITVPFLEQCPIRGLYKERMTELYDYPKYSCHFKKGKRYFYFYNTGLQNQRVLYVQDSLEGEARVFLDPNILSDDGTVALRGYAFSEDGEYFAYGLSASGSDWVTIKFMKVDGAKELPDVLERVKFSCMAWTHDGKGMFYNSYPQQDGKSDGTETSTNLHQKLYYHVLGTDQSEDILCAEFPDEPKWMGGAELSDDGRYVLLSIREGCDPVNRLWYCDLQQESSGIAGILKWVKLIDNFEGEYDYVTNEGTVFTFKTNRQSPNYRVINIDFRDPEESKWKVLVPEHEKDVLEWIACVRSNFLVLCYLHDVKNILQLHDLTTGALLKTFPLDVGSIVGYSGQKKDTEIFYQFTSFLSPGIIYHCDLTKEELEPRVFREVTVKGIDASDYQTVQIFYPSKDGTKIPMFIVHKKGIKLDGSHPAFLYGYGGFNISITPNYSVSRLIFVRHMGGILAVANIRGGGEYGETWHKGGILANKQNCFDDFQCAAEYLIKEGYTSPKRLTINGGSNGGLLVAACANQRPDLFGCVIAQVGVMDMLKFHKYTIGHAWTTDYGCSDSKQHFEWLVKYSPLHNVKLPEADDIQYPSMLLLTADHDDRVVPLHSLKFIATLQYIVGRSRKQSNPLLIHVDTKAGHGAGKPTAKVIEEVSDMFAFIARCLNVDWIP

[8] = target: recombinant mouse FAPα (rmFAPα) (Mus musculus (Mouse), UniProt P97321); experiment: FAPα enzymatic exopeptidase (dipeptidase) activity assay, Z-Gly-Pro-AMC; assay type: biochemical; details: 1 μM test compound
Chain of recombinant mouse FAPα (rmFAPα) (P97321 whole entry): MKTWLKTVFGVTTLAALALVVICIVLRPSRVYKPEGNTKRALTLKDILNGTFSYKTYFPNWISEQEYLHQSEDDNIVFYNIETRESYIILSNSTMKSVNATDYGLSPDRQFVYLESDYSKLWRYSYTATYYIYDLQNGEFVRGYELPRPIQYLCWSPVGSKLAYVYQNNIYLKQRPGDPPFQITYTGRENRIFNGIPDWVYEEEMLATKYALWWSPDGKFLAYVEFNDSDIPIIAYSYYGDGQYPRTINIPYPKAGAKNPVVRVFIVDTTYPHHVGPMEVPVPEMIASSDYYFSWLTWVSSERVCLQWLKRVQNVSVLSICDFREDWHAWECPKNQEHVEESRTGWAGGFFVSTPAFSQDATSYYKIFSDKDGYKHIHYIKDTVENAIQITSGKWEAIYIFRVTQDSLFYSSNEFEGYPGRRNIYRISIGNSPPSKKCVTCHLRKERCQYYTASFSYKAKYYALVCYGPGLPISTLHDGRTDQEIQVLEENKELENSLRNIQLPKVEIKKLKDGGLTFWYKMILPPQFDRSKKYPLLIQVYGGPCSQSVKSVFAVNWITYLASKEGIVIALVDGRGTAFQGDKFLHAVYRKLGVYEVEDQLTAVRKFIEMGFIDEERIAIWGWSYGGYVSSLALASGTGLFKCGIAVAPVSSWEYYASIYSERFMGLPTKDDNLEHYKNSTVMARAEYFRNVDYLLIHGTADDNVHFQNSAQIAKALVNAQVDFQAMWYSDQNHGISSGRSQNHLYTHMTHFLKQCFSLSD

[9] = target: recombinant mouse DPPIV (rmDPPIV) (Mus musculus (Mouse), UniProt P28843); experiment: DPPIV enzymatic activity assay; assay type: biochemical; details: Table 3A
[10] = target: recombinant mouse PREP (rmPREP) (Mus musculus (Mouse), UniProt Q9QUR6); experiment: PREP enzymatic activity assay; assay type: biochemical; details: Table 3A
Chain of recombinant mouse PREP (rmPREP) (Q9QUR6 whole entry): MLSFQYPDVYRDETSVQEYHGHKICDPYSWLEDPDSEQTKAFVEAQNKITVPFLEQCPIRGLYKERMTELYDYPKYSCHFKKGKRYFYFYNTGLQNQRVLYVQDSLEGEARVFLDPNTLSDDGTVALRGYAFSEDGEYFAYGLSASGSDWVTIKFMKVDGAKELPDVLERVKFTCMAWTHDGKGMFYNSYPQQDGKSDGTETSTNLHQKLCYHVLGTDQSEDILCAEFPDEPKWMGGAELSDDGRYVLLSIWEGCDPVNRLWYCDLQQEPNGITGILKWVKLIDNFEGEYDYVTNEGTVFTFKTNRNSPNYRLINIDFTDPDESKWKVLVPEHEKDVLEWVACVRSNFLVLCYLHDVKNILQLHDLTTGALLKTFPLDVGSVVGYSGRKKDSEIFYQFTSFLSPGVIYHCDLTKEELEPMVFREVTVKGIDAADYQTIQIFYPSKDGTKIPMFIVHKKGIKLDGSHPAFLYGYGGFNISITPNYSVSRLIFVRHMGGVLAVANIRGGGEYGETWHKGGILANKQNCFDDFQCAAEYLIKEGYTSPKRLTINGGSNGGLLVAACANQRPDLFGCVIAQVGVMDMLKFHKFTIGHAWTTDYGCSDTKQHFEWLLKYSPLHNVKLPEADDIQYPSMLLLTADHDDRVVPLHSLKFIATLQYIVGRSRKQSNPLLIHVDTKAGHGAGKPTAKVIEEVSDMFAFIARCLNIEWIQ

[11] = upon standing in pH 7.8; cyclization; cited from earlier work
[12] = Homo sapiens, MV4-11, 48 h, read-out: MV4-11 viability IC50, μM

Row | Compound | IC50 [1, 12] | IC50 [3] | IC50 [5] | inhibition at 1 µM ([6]; Table 3B) | IC50 [6] | other results
1 | N#C[C@@H]1CC(F)(F)CN1C(=O)CNC(=O)c1ccnc2ccc(-c3ccc(Cl)cc3)cc12 [Compound 2, (S)-6-(4-chlorophenyl)-N-(2-(2-cyano-4,4-difluoropyrrolidin-1-yl)-2-oxoethyl)quinoline-4-carboxamide] | 3 to 10 µM | < 1 µM |  |  |  | IC50 [2]: < 1 µM; IC50 [4]: < 1 µM
2 | N#C[C@@H]1CC(F)(F)CN1C(=O)CNC(=O)c1ccnc2ccc(-c3ccc4cc(Cl)ccc4c3)cc12 [Compound 3, (S)-6-(6-chloronaphthalen-2-yl)-N-(2-(2-cyano-4,4-difluoropyrrolidin-1-yl)-2-oxoethyl)quinoline-4-carboxamide] | 3 to 10 µM | < 1 µM | 1 to 10 µM |  |  | 
3 | N#C[C@@H]1CC(F)(F)CN1C(=O)CNC(=O)c1ccnc2ccc(-c3ccc4c(c3)CCC(=O)N4)cc12 [Compound 16, (S)—N-(2-(2-cyano-4,4-difluoropyrrolidin-1-yl)-2-oxoethyl)-2′-oxo-1′,2′,3′,4′-tetrahydro-[6,6′-biquinoline]-4-carboxamide] | > 10 µM | < 1 µM | 1 to 10 µM |  |  | 
4 | N#C[C@@H]1CC(F)(F)CN1C(=O)CNC(=O)c1ccnc2ccc(/C=C/c3ccncc3)cc12 [Compound 19, (S,E)-N-(2-(2-cyano-4,4-difluoropyrrolidin-1-yl)-2-oxoethyl)-6-(2-(pyridin-4-yl)vinyl)quinoline-4-carboxamide] | < 3 µM | < 1 µM | 1 to 10 µM |  |  | 
5 | N#C[C@@H]1CC(F)(F)CN1C(=O)CNC(=O)c1ccnc2ccc(/C=C/c3cccnc3)cc12 [Compound 20] | 3 to 10 µM | < 1 µM | > 10 µM |  |  | 
6 | C[C@@H](NC(=O)c1ccnc2ccc(-c3ccc(Cl)cc3)cc12)C(=O)N1CC(F)(F)C[C@H]1C#N [Compound 26] |  | < 1 µM | > 10 µM | 25 to 50% |  | 
7 | C[C@H](NC(=O)c1ccnc2ccc(-c3ccc(Cl)cc3)cc12)C(=O)N1CC(F)(F)C[C@H]1C#N [Compound 27] |  | < 1 µM | > 10 µM | < 25% |  | 
8 | CC(C)[C@@H](NC(=O)c1ccnc2ccc(-c3ccc(Cl)cc3)cc12)C(=O)N1CC(F)(F)C[C@H]1C#N [Compound 28] |  | > 10 µM | > 10 µM | < 25% |  | IC50 [7]: > 10 µM
9 | CC(C)[C@H](NC(=O)c1ccnc2ccc(-c3ccc(Cl)cc3)cc12)C(=O)N1CC(F)(F)C[C@H]1C#N [Compound 29] |  | > 10 µM | 1 to 10 µM | < 25% |  | IC50 [7]: > 10 µM
10 | COc1ccc(-c2ccc3nccc(C(=O)NCC(=O)N4CC(F)(F)C[C@H]4C#N)c3c2)cc1 [Compound 30] | 3 to 10 µM | < 1 µM | 1 to 10 µM |  |  | 
11 | N#C[C@@H]1CC(F)(F)CN1C(=O)CNC(=O)c1ccnc2ccc(/C=C/c3ccc4c(c3)CCNC4=O)cc12 [Compound 38] | > 10 µM | < 1 µM |  | > 50% | < 1 µM | 
12 | N#C[C@@H]1CC(F)(F)CN1C(=O)CNC(=O)c1ccnc2ccc(-c3ccc4c(c3)C(=O)NCC4)cc12 [Compound 107] |  | < 1 µM | 1 to 10 µM | > 50% | < 1 µM | 
13 | CN1C(=O)CCc2cc(-c3ccc4nccc(C(=O)NCC(=O)N5CC(F)(F)C[C@H]5C#N)c4c3)ccc21 [Compound 110] | < 3 µM | < 1 µM | > 10 µM |  |  | 
14 | CN1CCc2cc(-c3ccc4nccc(C(=O)NCC(=O)N5CC(F)(F)C[C@H]5C#N)c4c3)ccc2C1=O [Compound 111] |  | < 1 µM | 1 to 10 µM | > 50% | < 1 µM | 
15 | N#C[C@@H]1CC(F)(F)CN1C(=O)CNC(=O)c1ccnc2ccc(/C=C/c3ccc4[nH]ncc4c3)cc12 [Compound 112] |  | < 1 µM | < 1 µM | > 50% | < 1 µM | 
16 | N#C[C@@H]1CC(F)(F)CN1C(=O)CNC(=O)c1ccnc2ccc(-c3ccc4c(c3)CCCN4)cc12 [Compound 113] |  | < 1 µM | 1 to 10 µM | > 50% | < 1 µM | 
17 | C[C@@H](NC(=O)c1ccncc1-c1ccccc1)C(=O)N1CC(F)(F)C[C@H]1C#N [Compound 126] |  | > 10 µM | > 10 µM | < 25% | > 10 µM | IC50 [7]: > 10 µM
18 | C[C@H](NC(=O)c1ccncc1-c1ccccc1)C(=O)N1CC(F)(F)C[C@H]1C#N [Compound 127] |  | > 10 µM | > 10 µM | < 25% | > 10 µM | IC50 [7]: > 10 µM
19 | N#C[C@@H]1CC(F)(F)CN1C(=O)CNC(=O)c1ccnc2ccccc12 [Ref. Comp.] |  |  |  |  |  | rmFAPα (% exo inh @ 1 μM) [8]: +++ (+++ refers to > 50% inhibition at 1 μM test compound); IC50 [9]: > 10 µM; rhFAPα (% exo inh @ 1 μM) [6]: +++ (+++ refers to > 50% inhibition at 1 μM test compound); rhFAPα (% exo inh @ 1 μM) ([6]; Table 3B): +++ (+++ refers to > 50% inhibition at 1 μM test compound); IC50 [10]: > 10 µM
20 | CC(C)[C@H](N)C(=O)N1CCC[C@H]1B(O)O [Val-boroPro, reference compound] |  |  |  |  |  | IC50 ([1]; read-out: MV4-11 viability IC50, 48 hours post-treatment, Cell-Titer Glo): < 3 µM; stability of protease inhibitory activity [11]: rapidly loses protease inhibitory activity
